These molecules were tested against T1, HIS-TGFβR1 T204D (Homo sapiens, UniProt P36897, T204D) (assay: HTRF probe-displacement assay with HIS-TGFβR1 T204D). Settings: 1 nM HIS-TGFβR1 T204D, labeled probe at Kd, 1 hour at room temperature.
T1 sequence (P36897 34-503 T204D): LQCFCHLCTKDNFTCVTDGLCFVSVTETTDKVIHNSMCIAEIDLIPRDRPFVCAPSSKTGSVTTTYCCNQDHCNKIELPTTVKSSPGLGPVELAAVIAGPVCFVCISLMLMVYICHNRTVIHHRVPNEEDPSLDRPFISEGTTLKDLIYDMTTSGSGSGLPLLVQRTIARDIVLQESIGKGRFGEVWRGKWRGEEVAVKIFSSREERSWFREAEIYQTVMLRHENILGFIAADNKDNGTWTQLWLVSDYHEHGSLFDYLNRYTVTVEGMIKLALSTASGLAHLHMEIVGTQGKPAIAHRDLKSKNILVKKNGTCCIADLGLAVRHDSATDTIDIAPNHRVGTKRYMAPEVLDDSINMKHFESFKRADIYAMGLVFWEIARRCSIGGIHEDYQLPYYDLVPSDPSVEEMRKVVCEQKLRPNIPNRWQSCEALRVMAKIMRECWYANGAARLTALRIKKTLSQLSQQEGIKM
Format: binding
Protocol: The reaction is incubated for 1 hour at room temperature and the HTRF signal was measured on an Envision plate reader (Ex: 340 nm; Em: 520 nm/495 nm). Inhibition data were calculated by comparison to no enzyme control reactions for 100% inhibition and vehicle-only reactions for 0% inhibition. The final concentration of reagents in the assay are 1 nM HIS-TGFβR1 T204D or HIS-TGFβR2 WT, 0.2 nM anti-HIS detection antibody, labeled small molecule probe (at Kd) and 0.5% DMSO. Dose response curves were generated to determine the concentration required inhibiting 50% of kinase activity (IC50). Compounds were dissolved at 10 mM in dimethylsulfoxide (DMSO) and evaluated at eleven concentrations. IC50 values were derived by non-linear regression analysis.

| IC50 | SMILES |
| --- | --- |
| 0.006 µM | NC(=O)c1cnc2ccc(-c3cn(CC(F)F)nc3-c3cccc(C(F)(F)F)n3)cn12 [Example 8, 6-(1-(2,2-difluoroethyl)-3-(6-(trifluoromethyl)pyridin-2-yl)-1H-pyrazol-4-yl)imidazo[1,2-a]pyridine-3-carboxamide] |
| 0.007 µM | Cc1cccc(-c2nn(C)cc2-c2ccc3ncc(C(C)(C)O)n3c2)n1 [Example 52] |
| 0.03 µM | Cc1cccc(-c2nn(C)cc2-c2ccc3ncc(NC(C)(C)C)n3c2)n1 [Example 53, N-(tert-butyl)-6-(1-methyl-3-(6-methylpyridin-2-yl)-1H-pyrazol-4-yl)imidazo[1,2-a]pyridin-3-amine] |
| 0.079 µM | Cc1cccc(-c2nn(C)cc2-c2ccc3ncc(NC(=O)C(F)(F)F)n3c2)n1 [Example 54] |
| 0.025 µM | CC(=O)Nc1cnc2ccc(-c3c[nH]nc3-c3ccc(F)cc3)nn12 [Example 58, N-(6-(3-(4-fluorophenyl)-1H-pyrazol-4-yl)imidazo[1,2-b]pyridazin-3-yl)acetamide] |
| 0.374 µM | CC(C)c1c(-c2ccc3ncc(C(C)(C)O)n3c2)c(-c2ccc(F)cc2)nn1C [Example 74, 2-(6-(3-(4-fluorophenyl)-5-isopropyl-1-methyl-1H-pyrazol-4-yl)imidazo[1,2-a]pyridin-3-yl)propan-2-ol] |
| 0.001 µM | Cc1cc(-c2n[nH]c(C(C)C)c2-c2ccc3nccn3c2)ccc1F [Example 80, 6-(3-(4-fluoro-3-methylphenyl)-5-isopropyl-1H-pyrazol-4-yl)imidazo[1,2-a]pyridine] |
| 0.017 µM | CCc1[nH]nc(-c2ccc(F)cc2)c1-c1ccc2nccn2c1 [Example 83, 6-(5-ethyl-3-(4-fluorophenyl)-1H-pyrazol-4-yl)imidazo[1,2-a]pyridine] |
| 0.01 µM | CC(C)(O)c1cnc2ccc(-c3c(-c4ccc(F)cc4)n[nH]c3C3CC3)cn12 [Example 89, 2-(6-(5-cyclopropyl-3-(4-fluorophenyl)-1H-pyrazol-4-yl)imidazo[1,2-a]pyridin-3-yl)propan-2-ol] |
| 0.004 µM | OCc1cnc2ccc(-c3c(-c4ccc(F)cc4)n[nH]c3C3CC3)cn12 [Example 90, (6-(5-cyclopropyl-3-(4-fluorophenyl)-1H-pyrazol-4-yl)imidazo[1,2-a]pyridin-3-yl)methanol] |
| 0.058 µM | Cn1nc(C2CC2)c(-c2ccc3ncc(C(N)=O)n3c2)c1-c1ccc(F)cc1 [Example 95, 6-(3-cyclopropyl-5-(4-fluorophenyl)-1-methyl-1H-pyrazol-4-yl)imidazo[1,2-a]pyridine-3-carboxamide] |
| 0.07 µM | N#Cc1cnc2ccc(-c3c(-c4ccc(Cl)cc4)n[nH]c3C3CC3)cn12 [Example 96, 6-(3-(4-chlorophenyl)-5-cyclopropyl-1H-pyrazol-4-yl)imidazo[1,2-a]pyridine-3-carbonitrile] |
| 2.24 µM | Cn1nc(C2CC2)c(-c2ccc3ncc(F)n3c2)c1-c1ccc(F)cc1 [Example 104, 6-(3-cyclopropyl-5-(4-fluorophenyl)-1-methyl-1H-pyrazol-4-yl)-3-fluoroimidazo[1,2-a]pyridine] |
| 0.041 µM | N#Cc1cnc2ccc(-c3c(-c4ccc(F)cc4)n[nH]c3C(F)(F)F)cn12 [Example 105, 6-(3-(4-fluorophenyl)-5-(trifluoromethyl)-1H-pyrazol-4-yl)imidazo[1,2-a]pyridine-3-carbonitrile] |

More lines, now with the values behind:

| SMILES | IC50 |
| --- | --- |
| N#Cc1cnc2ccc(-c3c[nH]nc3-c3cccc(C(F)(F)F)n3)cn12 [Example 1, 6-(3-(6-(trifluoromethyl)pyridin-2-yl)-1H-pyrazol-4-yl)imidazo[1,2-a]pyridine-3-carbonitrile] | 0.001 µM |
| FC(F)(F)c1cccc(-c2n[nH]cc2-c2ccc3nccn3c2)n1 [Example 3, 6-(3-(6-(trifluoromethyl)pyridin-2-yl)-1H-pyrazol-4-yl)imidazo[1,2-a]pyridine] | 0.001 µM |
| N#Cc1cnc2ccc(-c3cn(CC(F)F)nc3-c3cccc(C(F)(F)F)n3)cn12 [Example 7, 6-(1-(2,2-difluoroethyl)-3-(6-(trifluoromethyl)pyridin-2-yl)-1H-pyrazol-4-yl)imidazo[1,2-a]pyridine-3-carbonitrile] | 0.008 µM |
| Cn1cc(-c2ccc3ncc(C#N)n3c2)c(-c2cccc(C(F)(F)F)n2)n1 [Example 9, 6-(1-methyl-3-(6-(trifluoromethyl)pyridin-2-yl)-1H-pyrazol-4-yl)imidazo[1,2-a]pyridine-3-carbonitrile] | 0.024 µM |
| O=C(Nc1cnc2ccc(-c3c[nH]nc3-c3ccc(F)cc3)cn12)C(F)(F)F [Example 16, 2,2,2-trifluoro-N-(6-(3-(4-fluorophenyl)-1H-pyrazol-4-yl)imidazo[1,2-a]pyridin-3-yl)acetamide] | 0.187 µM |
| Nc1cc(-c2c[nH]nc2-c2ccc(F)cc2)cn2ccnc12 [Example 32, 6-(3-(4-fluorophenyl)-1H-pyrazol-4-yl)imidazo[1,2-a]pyridin-8-amine] | 0.465 µM |
| O=C(O)c1cnc2ccc(-c3c[nH]nc3-c3ccc(F)cc3)cn12 [Example 60, 6-(3-(4-fluorophenyl)-1H-pyrazol-4-yl)imidazo[1,2-a]pyridine-3-carboxylic acid] | 0.012 µM |
| CC(C)c1[nH]nc(-c2ccc(F)cc2)c1-c1ccc2nccn2c1 [Example 69, 6-(3-(4-fluorophenyl)-5-isopropyl-1H-pyrazol-4-yl)imidazo [1,2-a]pyridine] | 0.007 µM |
| CC(C)c1nn(C)c(-c2ccc(F)cc2)c1-c1ccc2ncc(C(N)=O)n2c1 [Example 71] | 0.145 µM |
| CC(C)c1nn(C)c(-c2ccc(F)cc2)c1-c1ccc2ncc(C(C)(C)O)n2c1 [Example 73, 2-(6-(5-(4-fluorophenyl)-3-isopropyl-1-methyl-1H-pyrazol-4-yl)imidazo[1,2-a]pyridin-3-yl)propan-2-ol] | 9.86 µM |
| CC(C)c1[nH]nc(-c2ccc(Cl)cc2)c1-c1ccc2ncc(C#N)n2c1 [Example 75, 6-(3-(4-chlorophenyl)-5-isopropyl-1H-pyrazol-4-yl)imidazo[1,2-a]pyridine-3-carbonitrile] | 0.054 µM |
| CC(C)c1[nH]nc(-c2ccc(Cl)cc2)c1-c1ccc2nccn2c1 [Example 77, 6-(3-(4-chlorophenyl)-5-isopropyl-1H-pyrazol-4-yl)imidazo[1,2-a]pyridine] | 0.144 µM |
| CCc1[nH]nc(-c2ccc(F)cc2)c1-c1ccc2ncc(C#N)n2c1 [Example 81, 6-(5-ethyl-3-(4-fluorophenyl)-1H-pyrazol-4-yl)imidazo[1,2-a]pyridine-3-carbonitrile] | 0.006 µM |
| CC(O)c1cnc2ccc(-c3c(-c4ccc(F)cc4)n[nH]c3C3CC3)cn12 (stereo not shown) [Example 91, 1-(6-(5-cyclopropyl-3-(4-fluorophenyl)-1H-pyrazol-4-yl)imidazo[1,2-a]pyridin-3-yl)ethanol] | 0.008 µM |
| Clc1ccc(-c2n[nH]c(C3CC3)c2-c2ccc3nccn3c2)cc1 [Example 98, 6-(3-(4-chlorophenyl)-5-cyclopropyl-1H-pyrazol-4-yl)imidazo[1,2-a]pyridine] | 0.05 µM |
| Cc1cc(-c2n[nH]c(C3CC3)c2-c2ccc3nccn3c2)ccc1F [Example 101, 6-(5-cyclopropyl-3-(4-fluoro-3-methylphenyl)-1H-pyrazol-4-yl)imidazo[1,2-a]pyridine] | 0.001 µM |
| Fc1ccc(-c2n[nH]c(C3CC3)c2-c2ccc3ncc(F)n3c2)cc1 [Example 102, 6-(5-cyclopropyl-3-(4-fluorophenyl)-1H-pyrazol-4-yl)-3-fluoroimidazo[1,2-a]pyridine] | 0.014 µM |

Reference: US20190292179A1 (BRISTOL-MYERS SQUIBB COMPANY, priority 2016, published 2019)
